Legend:
ABUTH [1] = test: Pre-emergence herbicidal action against ABUTH; format: in vivo, Abutilon theophrasti
Method in brief: (§1)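 Herbicidal effect was assessed 3 weeks after treatment by visual comparison with untreated controls, 100% denoting dead plants. Aqueous WP or EC preparations had been applied at 600 to 800 l/ha with 0.2% wetting agent to the soil covering freshly sown seeds.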

ALOMY [2] = test: Pre-emergence herbicidal action against ALOMY; format: in vivo, Alopecurus myosuroides; conditions: 80 g/ha, pre-emergence, scored visually after 3 weeks vs untreated controls (100% = plants have died, 0% = like control plants)
Method in brief: as §1

AMARE [3] = test: Pre-emergence herbicidal action against AMARE; format: in vivo, Amaranthus retroflexus
Method in brief: as §1

ECHCG [4] = test: Pre-emergence herbicidal action against ECHCG; format: in vivo, Echinochloa crus-galli
Method in brief: as §1

POLCO = test: Pre-emergence herbicidal action against POLCO; format: in vivo, Polygonum convolvulus; conditions: dosage 80 g/ha
Method in brief: as §1

SETVI [5] = test: Pre-emergence herbicidal action against SETVI; format: in vivo, Setaria viridis; conditions: dosage 80 g/ha
Method in brief: as §1

STEME [6] = test: Pre-emergence herbicidal action against STEME; format: in vivo, Stellaria media
Method in brief: as §1

VIOTR [7] = test: Pre-emergence herbicidal action against VIOTR; format: in vivo, Viola tricolor
Method in brief: as §1

DIGSA [8] = test: Pre-emergence herbicidal action against DIGSA; format: in vivo, Digitaria sanguinalis
Method in brief: as §1

ABUTH [9] = test: Post-emergence herbicidal action against ABUTH; format: in vivo, Abutilon theophrasti; conditions: visual assessment about 3 weeks after treatment vs untreated controls
Method in brief: (§2)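 Herbicidal effect was scored visually in percent after about 3 weeks in the greenhouse. Plants had been raised in sandy loam and treated post-emergence at the one-leaf stage with formulated compound at 600 to 800 l/ha water plus 0.2% wetting agent.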

ALOMY [10] = test: Post-emergence herbicidal action against ALOMY; format: in vivo, Alopecurus myosuroides; conditions: visual assessment about 3 weeks after treatment vs untreated controls
Method in brief: as §2

AMARE [11] = test: Post-emergence herbicidal action against AMARE; format: in vivo, Amaranthus retroflexus; conditions: 20 g/ha, visual assessment about 3 weeks after treatment, 100% = plants have died, 0% = like control plants
Method in brief: as §2

AVEFA [12] = test: Post-emergence herbicidal action against AVEFA; format: in vivo, Avena fatua; conditions: 20 g/ha, visual assessment about 3 weeks after treatment, 100% = plants have died, 0% = like control plants
Method in brief: as §2

ECHCG [13] = test: Post-emergence herbicidal action against ECHCG; format: in vivo, Echinochloa crus-galli
Method in brief: as §2

LOLRI [14] = test: Post-emergence herbicidal action against LOLRI; format: in vivo, Lolium rigidum; conditions: dosage 20 g/ha
Experimental: Seeds of monocotyledonous and dicotyledonous weed and crop plants are laid out in sandy loam soil in wood-fiber pots, covered with soil and cultivated in a greenhouse under good growth conditions. 2 to 3 weeks after sowing, the test plants are treated at the one-leaf stage. The compounds of the invention, formulated in the form of wettable powders (WP) or as emulsion concentrates (EC), are then sprayed onto the green parts of the plants in the form of an aqueous suspension or emulsion at a water application rate equivalent to 600 to 800 l/ha, with addition of 0.2% wetting agent. After the test plants have been left to stand in the greenhouse under optimal growth conditions for about 3 weeks, the action of the preparations is assessed visually in comparison to untreated controls (herbicidal action in percent (%): 100% activity=the plants have died, 0% activity=like control plants). […] The tables below illustrate, in an illustrative manner, the post-emergence herbicidal action of the compounds of the invention, the herbicidal activity being stated in percent.

MATIN [15] = test: Post-emergence herbicidal action against MATIN; format: in vivo, Matricaria inodora; conditions: dosage 20 g/ha
Method in brief: as §2

PHBPU [16] = test: Post-emergence herbicidal action against PHBPU; format: in vivo, Pharbitis purpurea; conditions: dosage 20 g/ha
Method in brief: as §2

SETVI [17] = test: Post-emergence herbicidal action against SETVI; format: in vivo, Setaria viridis
Method in brief: as §2

STEME [18] = test: Post-emergence herbicidal action against STEME; format: in vivo, Stellaria media
Method in brief: as §2

VIOTR [19] = test: Post-emergence herbicidal action against VIOTR; format: in vivo, Viola tricolor
Method in brief: as §2

DIGSA [20] = test: Post-emergence herbicidal action against DIGSA; format: in vivo, Digitaria sanguinalis
Method in brief: as §2

AVEFA [21] = test: Pre-emergence herbicidal action against AVEFA; format: in vivo, Avena fatua; conditions: Avena fatua, 504 h; 80 g/ha, pre-emergence
Method in brief: as §1

LOLRI [22] = test: Pre-emergence herbicidal action against LOLRI; format: in vivo, Lolium rigidum; conditions: Lolium rigidum, 504 h, 80 g/ha
Method in brief: as §1

MATIN [23] = test: Pre-emergence herbicidal action against MATIN; format: in vivo, Matricaria inodora; conditions: Tripleurospermum inodorum, 504 h
Method in brief: as §1

PHBPU [24] = test: Pre-emergence herbicidal action against PHBPU; format: in vivo, Pharbitis purpurea; conditions: Ipomoea purpurea, 504 h, dosage 80 g/ha
Method in brief: as §1

VERPE = test: Post-emergence herbicidal action against VERPE; format: in vivo, Veronica persica; conditions: Veronica persica, 504 h, 20 g/ha
Method in brief: as §2

[25] = 80 g/ha, scored visually after 3 weeks vs untreated controls (100% = plants have died, 0% = like control plants)

CCNC(=O)c1c(C(F)F)ccc(C(=O)Nc2nnco2)c1Cl [Example 5-123]
Pre-emergence action against ABUTH (herbicidal activity) (ABUTH [1]; [25]): 100%
Pre-emergence action against ABUTH (herbicidal activity in percent) (ABUTH [1]; dosage 20 g/ha, scored visually after 3 weeks vs untreated controls, 100% = plants have died, 0% = like control plants): 100%
Pre-emergence action against ALOMY (herbicidal activity) (ALOMY [2]): 80%
Pre-emergence action against AMARE in % (AMARE [3]; 20 g/ha, scored visually after 3 weeks vs untreated controls, 100% = plants have died, 0% = like control plants): 100%
Pre-emergence action against AMARE in % (AMARE [3]; [25]): 100%
Pre-emergence action against ECHCG in % (ECHCG [4]; 20 g/ha): 90%
Pre-emergence action against ECHCG in % (ECHCG [4]; 80 g/ha): 100%
Pre-emergence action against POLCO in % (POLCO): 80%
Pre-emergence action against SETVI in % (SETVI [5]): 100%
Pre-emergence action against STEME in % (STEME [6]; dosage 20 g/ha): 90%
Pre-emergence action against STEME in % (STEME [6]; dosage 80 g/ha): 90%
Pre-emergence action against VIOTR in % (VIOTR [7]; dosage 20 g/ha): 90%
Pre-emergence action against VIOTR in % (VIOTR [7]; dosage 80 g/ha): 100%
Pre-emergence action against DIGSA in % (DIGSA [8]; dosage 20 g/ha): 100%
Pre-emergence action against DIGSA in % (DIGSA [8]; dosage 80 g/ha): 100%
Post-emergence action against ABUTH in % (ABUTH [9]; dosage 5 g/ha): 90%
Post-emergence action against ABUTH in % (ABUTH [9]; dosage 20 g/ha): 90%
Post-emergence action against ALOMY in % (ALOMY [10]; dosage 20 g/ha): 80%
Post-emergence action at 20 g/ha against AMARE in % (AMARE [11]): 90%
Post-emergence action at 20 g/ha against AVEFA in % (AVEFA [12]): 80%
Post-emergence action against ECHCG in % (ECHCG [13]; dosage 5 g/ha): 90%
Post-emergence action against ECHCG in % (ECHCG [13]; dosage 20 g/ha): 90%
Post-emergence action against LOLRI in % (LOLRI [14]): 80%
Post-emergence action against MATIN in % (MATIN [15]): 80%
Post-emergence action against PHBPU in % (PHBPU [16]): 80%
Post-emergence action against SETVI in % (SETVI [17]; dosage 5 g/ha): 80%
Post-emergence action against SETVI in % (SETVI [17]; dosage 20 g/ha): 80%
Post-emergence action against STEME in % (STEME [18]; 20 g/ha): 90%
Post-emergence action against STEME in % (STEME [18]; dosage 5 g/ha): 90%
Post-emergence action against VIOTR in % (VIOTR [19]; 5 g/ha): 80%
Post-emergence action against VIOTR in % (VIOTR [19]; 20 g/ha): 90%
Post-emergence action against DIGSA in % (DIGSA [20]; 5 g/ha): 90%
Post-emergence action against DIGSA (DIGSA [20]; 20 g/ha): 90%

Cn1nnnc1NC(=O)c1ccc(Br)c(C(=O)NCC(F)(F)F)c1Cl [Example 1-181]
pest or weed control at 80 g/ha (ABUTH [1]; Abutilon theophrasti, 504 h, 80 g/ha, scored visually after 3 weeks vs untreated controls (100% = plants have died, 0% = like control plants)): 100%
pest or weed control at 20 g/ha (ABUTH [1]; Abutilon theophrasti, 504 h, dosage 20 g/ha, scored visually after 3 weeks vs untreated controls, 100% = plants have died, 0% = like control plants, read-out: Pre-emergence action against ABUTH (herbicidal activity in percent)): 90%
pest or weed control at 80 g/ha (ALOMY [2]; Alopecurus myosuroides, 504 h): 100%
pest or weed control at 20 g/ha (AMARE [3]; Amaranthus retroflexus, 504 h, 20 g/ha, scored visually after 3 weeks vs untreated controls, 100% = plants have died, 0% = like control plants): 100%
pest or weed control at 80 g/ha (AMARE [3]; Amaranthus retroflexus, 504 h, 80 g/ha, scored visually after 3 weeks vs untreated controls, 100% = plants have died, 0% = like control plants): 100%
pest or weed control at 80 g/ha (AVEFA [21]): 80%
pest or weed control at 80 g/ha (ECHCG [4]; Echinochloa crus-galli, 504 h, 80 g/ha): 100%
pest or weed control at 80 g/ha (LOLRI [22]): 80%
pest or weed control at 20 g/ha (MATIN [23]; dosage 20 g/ha): 90%
pest or weed control at 80 g/ha (MATIN [23]; dosage 80 g/ha): 100%
pest or weed control at 80 g/ha (PHBPU [24]): 80%
pest or weed control at 80 g/ha (SETVI [5]; Setaria viridis, 504 h): 100%
pest or weed control at 20 g/ha (VIOTR [7]; Viola tricolor, 504 h, dosage 20 g/ha): 100%
pest or weed control at 80 g/ha (VIOTR [7]; Viola tricolor, 504 h, dosage 80 g/ha): 100%
pest or weed control at 20 g/ha (DIGSA [8]; Digitaria sanguinalis, 504 h, dosage 20 g/ha): 100%
pest or weed control at 80 g/ha (DIGSA [8]; Digitaria sanguinalis, 504 h, dosage 80 g/ha): 100%
pest or weed control at 5 g/ha (ALOMY [10]; Alopecurus myosuroides, 504 h, dosage 5 g/ha): 80%
pest or weed control at 20 g/ha (ALOMY [10]; Alopecurus myosuroides, 504 h, dosage 20 g/ha): 100%
pest or weed control at 20 g/ha (AMARE [11]; Amaranthus retroflexus, 504 h): 100%
pest or weed control at 20 g/ha (AVEFA [12]; Avena fatua, 504 h): 90%
pest or weed control at 5 g/ha (ECHCG [13]; Echinochloa crus-galli, 504 h, dosage 5 g/ha): 80%
pest or weed control at 20 g/ha (ECHCG [13]; Echinochloa crus-galli, 504 h, dosage 20 g/ha): 80%
pest or weed control at 20 g/ha (LOLRI [14]; Lolium rigidum, 504 h): 80%
pest or weed control at 20 g/ha (PHBPU [16]; Ipomoea purpurea, 504 h): 90%
pest or weed control at 20 g/ha (SETVI [17]; Setaria viridis, 504 h, dosage 20 g/ha): 90%
pest or weed control at 20 g/ha (VERPE): 90%
pest or weed control at 5 g/ha (DIGSA [20]; Digitaria sanguinalis, 504 h, 5 g/ha): 90%
pest or weed control at 20 g/ha (DIGSA [20]; Digitaria sanguinalis, 504 h, 20 g/ha): 90%

From US12655116B2, “Substituted isophthalic acid diamides” (Bayer Aktiengesellschaft, priority 2020, dated 2026)
